These are literature values, as cited in patent US20190083428A1, “SALT BALANCED VAGINAL PRODUCT AND METHOD” (Good Clean Love, Inc., priority 2014, published 2019).

The conditions of data set [1]: hyperosmolal concentrations.
Another data set deals with HSV-2. Particulars: after a single exposure.

Regarding `OCC(O)CO` [glycerol], the toxicity result in data set [1] was “obvious toxicity”.
On to `CC(O)CO` (stereo not shown) [propylene glycol], for which the “susceptibility to HSV-2” value with HSV-2 is “markedly increased susceptibility”. Further, the toxicity result in data set [1] is “obvious toxicity”.
Turning to nonoxynol-9 [Example N9], the toxicity to lactobacilli result with lactobacilli was “toxic”.
